Patent US20230337664A1, “FRUIT FLY CONTROL” (MACQUARIE UNIVERSITY, priority 2020, published 2023)

How the values were obtained:
Bactrocera tryoni [1] = experiment: Oviposition assay for Bactrocera tryoni; format: in vivo; conditions: 1.17% w/v in agar plate with γ-octalactone; P<0.0001
Procedure: Agar plates with oviposition stimulant (OS; γ-octalactone) with 1-octanol (1.17% w/v) or 1-nonanol (1.17% w/v) were used as oviposition substrate to determine the oviposition deterrent activity of 1-octanol and 1-nonanol to gravid female B. tryoni. Agarose (0.8 g in 100 ml water) was melted in a microwave, was cooled to 40° C. and appropriate amount of the oviposition stimulant in combination with 1-octanol or 1-nonanol was added. This mixture was poured into Petri plates and cooled at 0° C. in a refrigerator. This was done to enhance setting of the mixture and lower volatile vaporization. Oviposition substrates were prepared freshly when required. Oviposition plate containing OS alone (control), OS+1-octanol or OS+1-nonanol was provided to gravid females (50 gravid females; 15-20 days old) in cages (30×30×30 cm) to lay eggs. The eggs laid in each plate was enumerated under a stereo-dissecting microscope (Olympus, Japan). Thirty replicates for each test compound and control were carried out.

Bactrocera jarvisi = experiment: Oviposition assay for Bactrocera jarvisi; format: in vivo; conditions: 1.17% in agar plate with mango juice; P<0.0001
Procedure: Agar plates with oviposition stimulant (MJ: Mango Juice) with 1-octanol (1.17%) or 1-nonanol (1.17%) were used as oviposition substrate to determine the oviposition deterrent activity of 1-octanol and 1-nonanol to gravid female B. jarvisi. Agar (0.8 g in 100 ml of diluted mango juice with water; 1:1) melted in a microwave, was cooled to 40° C. and appropriate amount of 1-octanol or 1-nonanol was added. This mixture was poured into Petri plates and cooled to 0° C. in a refrigerator. This was done to enhance setting of the mixture and lower volatile vaporization. Oviposition substrates were prepared freshly when required. Oviposition plate containing MJ alone (control), MJ+1-octanol or MJ+1-nonanol was provided to gravid females (20 gravid females; 15-20 days old) in cages (30×30×30 cm) to lay eggs. The eggs laid in each plate was enumerated under a stereo-dissecting microscope (Olympus, Japan). Twenty four replicates for each test compound and control were carried out.

Zeugodacus cucumis = experiment: Oviposition assay for Zeugodacus cucumis; format: in vivo; conditions: 1.17% w/v with zucchini juice on agar plate; P<0.0001
Procedure: Agar plates applied with oviposition stimulant (OS: fresh zucchini juice) with 1-octanol (1.17% w/v) or 1-nonanol (1.17% w/v) were used as oviposition substrate to determine the oviposition deterrent activity of 1-octanol and 1-nonanol to gravid female Z. cucumis. Agar (0.8 g in 100 ml water) was melted in a microwave, was cooled to 40° C. and poured into Petri plates and cooled at 0° C. Oviposition stimulant alone or OS mixed with 1-octanol or 1-nonanol (50 ul) was spread on agarose plates. Oviposition substrates were prepared freshly when required. Oviposition plate containing OS alone (control), OS+1-octanol or OS+1-nonanol was provided to gravid females (20 gravid females; 15-20 days old) in cages (30×30×30 cm) to lay eggs. The eggs laid in each plate was enumerated under a stereo-dissecting microscope (Olympus, Japan). Twenty four replicates for each test compound and control were carried out.

Ceratitis capitata = experiment: Oviposition assay for Ceratitis capitata; format: in vivo; conditions: grapes dipped in 1.17% w/v solution; P<0.0001
From the text: Red seedless grapes from IGA express (Murdoch University, Perth) washed with warm water thrice and dried with paper towel were used as oviposition substrate. Solution of 1-octanol (1.17% w/v) or 1-nonanol (1.17% w/v) were made by mixing appropriate amounts of 1-octanol or 1-nonanol in water with ethanol as an emulsifier. Washed grapes of equal size, dipped into the above solutions for 15-20 sec, was provided to gravid females (50 gravid females; 15-20 days old) in cages (30×30×30 cm) to lay eggs. Grapes that were dipped in water and emulsifier mixture was used as control. Eggs laid in each grapes was enumerated under a stereo-dissecting microscope (Olympus, Japan). Forty replicates for each test compound and control were carried out.

Bactrocera kraussi = experiment: Oviposition assay for Bactrocera kraussi; format: in vivo; conditions: orange segments dipped in 1.17% w/v solution; P<0.0001
From the text: Oranges from Woolworths (Marsfield, NSW) were washed with warm water and dried with paper towel. They were peeled and segmented and a single segment was used as oviposition substrate. Solution of 1-octanol (1.17% w/v) or 1-nonanol (1.17% w/v) were made by mixing appropriate amounts of 1-octanol or 1-nonanol in water with ethanol as an emulsifier. Orange segments of equal size, dipped into the above solutions for 15-20 sec, was provided to gravid females flies (20 gravid females; 20 days old) in cages (30×30×30 cm) to lay eggs. Orange segments dipped in water and emulsifier mixture was used as control. Eggs laid in each orange segment was enumerated under a stereo-dissecting microscope (Olympus, Japan). Twelve replicates for each test compound and control were carried out.

[2] = tested on: Bactrocera tryoni antenna; experiment: GC-EAG responses, Bactrocera tryoni; conditions: both sexes
From the text: (§1) Coupled Gas Chromatography-Electroantennography (GC-EAG) recordings were made with Ag-glass microelectrodes filled with electroconductive gel (Spectra 360, Parker Laboratories Inc., USA). The head of male or female flies (i.e., Bactrocera tryoni, Bactrocera jarvisi, Bactrocera kraussi, and Zeugodacus cucumis) was separated from the body with a microscalpel and was placed on the tip of the indifferent electrode, making sure the base of the head is affixed to the gel in the electrode. The tip of the insect antenna was made to touch the recording electrode and was slightly inserted into the gel to stabilize the antenna. The mounted heads were under charcoal filtered and humidified air flow (2400 mL min-1) controlled by a flow controller (Stimulus Controller CS-55, Syntech, Hilversum, The Netherlands). The signals were passed through a high impedance amplifier (UN-06, Syntech, Hilversum, The Netherlands). 1-octanol or 1-nonanol were tested individually or as mixture of known concentration. After injection of compounds, the effluent from the GC column was simultaneously directed to the antennal preparation and the GC detector. […] The outputs from the EAG amplifier and the FID were monitored simultaneously and analysed using the GCEAD 2014 software v1.2.5 (Syntech, The Netherlands).

[3] = tested on: Bactrocera jarvisi antenna; experiment: GC-EAG responses, Bactrocera jarvisi; conditions: both sexes
From the text: as §1

[4] = tested on: Bactrocera kraussi antenna; experiment: GC-EAG responses, Bactrocera kraussi; conditions: both sexes
From the text: as §1

[5] = tested on: Zeugodacus cucumis antenna; experiment: GC-EAG responses, Zeugodacus cucumis; conditions: both sexes
From the text: as §1

[6] = tested on: Ceratitis capitata antenna; experiment: Standalone EAG, Ceratitis capitata; conditions: both sexes; ten replicates per compound per sex
From the text: For the […], Ceratitis capitata, a standalone EAG was used for antennal recordings. Electroconductive gel (Spectra 360, Parker Laboratories Inc., USA) were applied to the arms of the metal electrodes and the head of male or female fly, separated from the body was affixed onto one of the indifferent metal arm. The recording arm with gel was made to touch a single or both the antenna of the fly. The antennal preparation was inserted to the EAG probe holder that was under filtered and humidified air the same as described above. The EAG signals were passed through a high impedance amplifier (UN-06, Syntech, Hilversum, The Netherlands). 1-Octanol or 1-nonanol of known concentrations were tested individually. The compounds (10 ul) were dispensed on a filter paper and were placed into a pasture pipette. The prepared pipettes were fixed tubing from the stimulus controller (CS-55, Syntech, The Netherlands) and the stimulus was puffed over the antennal preparation. The response was record using EAGPro software (Syntech, The Netherlands). Ten replicates were recorded for each compound per sex, with EAG activity confirmed in 100% of trials presenting 1-octanol or 1-nonanol for both sexes of C. capitata (FIG. 10E).

Bactrocera tryoni [7] = experiment: Four-arm olfactometer bioassay; format: in vivo; conditions: arm containing C1 vs without
Procedure: An acrylic four-arm olfactometer (120 mm dia.) was used to measure behavioural responses of Bactrocera tryoni males/females to food (yeast hydrolysate) with or without 1-octanol (EAG-active compound). Prior to each experiment, acrylic components were washed with a non-ionic detergent solution, rinsed with ethanol solution and distilled water, and left to air dry. Experiments were conducted in a controlled environment room (25±2° C., 60% RH). The central area was fitted with a filter-paper base (Whatmann No. 1, 12 cm dia.) to provide traction for the walking insects. The room was illuminated from above by uniform lighting from white fluorescent light bulbs to negate directional bias. Individual flies (10-15 days old) were introduced through a hole below the olfactometer. Each fly was given 5 min to acclimatize in the olfactometer, after which the experiment was run for 10 min for each replicate. The olfactometer was rotated 90° after each replicate to eliminate any directional bias in the room. Air was drawn through the central hole at 200 ml min-1 and subsequently exhausted from the room. The central arena of the olfactometer was divided into four discrete odour fields corresponding to each of four inlet arms. A choice test was performed that used two different opposite arms. […] Fly activity in each olfactometer was video recorded. The time spent in each arm was recorded using BORIS software. […]

[8] = tested on: Bactrocera tryoni antenna; experiment: GC-EAD electrophysiology of ant extracts; conditions: peak in Head and Headspace volatiles
From the text: Coupled Gas Chromatography-Electroantennography (GC-EAG) recordings were made with Ag-glass microelectrodes filled with electroconductive gel (Spectra 360, Parker Laboratories Inc., USA). The head of male or female Bactrocera tryoni, anaesthetized by chilling, was separated from the body with a microscalpel and was placed on the tip of the indifferent electrode, making sure the base of the head is affixed to the gel in the electrode. The tip of the insect antenna was made to touch the recording electrode and was slightly inserted into the gel to stabilize the antenna. The signals were passed through a high impedance amplifier (UN-06, Syntech, Hilversum, The Netherlands) and analysed using a software package provided by Syntech. Each extract-cuticular compounds, Dufour's glands, poison glands, trail, headspace, and head extractions were tested individually. After injection of extraction samples, the effluent from the GC column was simultaneously directed to the antennal preparation and the GC detector. Separation of compounds was achieved on an Agilent Gas Chromatography system equipped with a column injector and a flame ionization detector (FID), using an Agilent HP-5 column (30 m×0.32 mm, 0.25 μm film). […] The outputs from the EAG amplifier and the FID were monitored simultaneously and analysed using the Syntech software package. […]

Bactrocera tryoni [9] = experiment: Mating assay (mating disruption); format: in vivo; conditions: of 15 trials; 5 microliters on filter paper, air pumped into arena; P<0.00001 vs control
Procedure: Mating assays were carried out at dusk, the normal mating time of B. tryoni. A pair of 15-day old male and female flies were introduced into a behavioural arena 30 min before the onset of dusk. They were allowed to acclimatize for 20 min after which 1-octanol or filtered air was pumped through the inlet of the arena. Five microliters of 1-octanol was applied on a clean filter paper. This filter paper was placed into an air-tight vessel with an inlet and outlet. Charcoal filtered air (1 litre per hour) was pumped into the vessel from the inlet and the outlet was connected to the inlet of the arena with flies. Air from a vessel with clean filter paper was used as control. Fifteen pairs were set up for both 1-octanol treatment and air control. The activity of flies was recorded overnight, and the video was analysed using BORIS software. Collected data included (1) whether a pair mated, (2) Number of copulation attempts, and (3) copula duration.

CCCCCCCCCO [1-nonanol]
Eggs laid on oviposition plates vs control (Bactrocera tryoni [1]): significantly different from control
Eggs laid on oviposition plates vs control (Bactrocera jarvisi): significantly different from control
Eggs laid on oviposition plates vs control (Zeugodacus cucumis): significantly different from control
Eggs laid vs control (Ceratitis capitata): significantly different from control
Eggs laid vs control (Bactrocera kraussi): significantly different from control
Trials with EAG activity [2]: 100 % of trials
Trials with EAG activity [3]: 100 % of trials
Trials with EAG activity [4]: 100 % of trials
Trials with EAG activity [5]: 100 % of trials
Trials with EAG activity [6]: 100 % of trials

CCCCCCCCO [1-octanol]
Time spent in olfactometer arm (Bactrocera tryoni [7]): less time
Response in fly's antenna (GC-EAD) [8]: trigger response
Eggs laid on oviposition plates vs control (Bactrocera tryoni [1]): significantly different from control
Eggs laid on oviposition plates vs control (Bactrocera jarvisi): significantly different from control
Eggs laid on oviposition plates vs control (Zeugodacus cucumis): significantly different from control
Eggs laid vs control (Ceratitis capitata): significantly different from control
Eggs laid vs control (Bactrocera kraussi): significantly different from control
Trials in which flies attempted mating (Bactrocera tryoni [9]): none
Trials with successful mating (Bactrocera tryoni [9]): none
Trials with EAG activity [2]: 100 % of trials
Trials with EAG activity [3]: 100 % of trials
Trials with EAG activity [4]: 100 % of trials
Trials with EAG activity [5]: 100 % of trials
Trials with EAG activity [6]: 100 % of trials
